Literature values, collected in Sander's compilation of Henry's law constants (doi:10.1016/j.chemosphere.2007.04.088).

Test: Henry solubility constant Hcp at 298.15 K (mol/(m3 Pa))
Conditions: reference: Warneck (2007); cited value

Structure (SMILES) | Henry solubility constant Hcp
ClCC(Cl)(Cl)Cl [1,1,1,2-tetrachloroethane] | 0.0042
CC(Cl)(Cl)Cl [1,1,1-trichloroethane] | 0.0006
ClC(Cl)C(Cl)Cl [1,1,2,2-tetrachloroethane] | 0.024
ClCC(Cl)Cl [1,1,2-trichloroethane] | 0.011
C=C(Cl)Cl [1,1-dichloroethene] | 0.00037
CCCl [chloroethane] | 0.00083
C=CCl [chloroethene] | 0.00038
ClCCl [dichloromethane] | 0.0039
ClC(Cl)=C(Cl)Cl [tetrachloroethene] | 0.00062
ClC(Cl)(Cl)Cl [tetrachloromethane] | 0.00036
ClC=C(Cl)Cl [trichloroethene] | 0.0011
